Values of other authors in patent US20200114015A1, “Novel Alpha-Hydroxy Carboxylic Acid And Derivatives And Other GRAS- Based Prodrugs Of Gamma-Hydroxybutyrate (GHB) And Uses Thereof” (priority 2017, published 2020).

Conditions: GHB marketed as Xyrem

For O=C(O)CCCO [GHB, gamma-hydroxybutyrate], the bioavailability is listed as ~25% and the half life is listed as 30 to 60 min.
